{
  "source": "patent US20020137929A1",
  "about": "“1 - (3-heterocyclylphenyl) isothiourea, -isourea, -guanidine and -amidine herbicidal agents” (Intellectual Property Department, BASF Aktiengesellschaft, priority 1998, published 2002)",
  "key": {"ABUTH (Velvetleaf)": {"system": "ABUTH (Velvetleaf)", "test": "Postemergence herbicidal evaluation", "type": "in vivo, Abutilon theophrasti", "method_in_brief": "(§1)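 Two-week-old seedlings sprayed with compound in 50/50 acetone/water plus 0.5% TWEEN 20, at about 0.0156 to 0.500 kg/ha, nozzle at 40 psi. Kept in greenhouse; rated visually 4-5 weeks after treatment on a 0-9 scale versus control, repeat tests averaged.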"}, "AMBEL (Ragweed, Common) [1]": {"system": "AMBEL (Ragweed, Common)", "test": "Postemergence herbicidal evaluation", "type": "in vivo, Ambrosia artemisifolia", "method_in_brief": "as §1"}, "[2]": {"system": "CHEAL (Lambsquarters, Common)", "test": "Postemergence herbicidal evaluation", "type": "in vivo, Chenopodium album", "method_in_brief": "as §1"}, "ECHCG (Barnyardgrass)": {"system": "ECHCG (Barnyardgrass)", "test": "Postemergence herbicidal evaluation", "type": "in vivo, Echinochloa crus-galli", "method_in_brief": "as §1"}, "[3]": {"system": "GLXMAW (Soybean, Williams)", "test": "Postemergence herbicidal evaluation", "type": "in vivo, Glycine max, (L.) Merr. cv Williams", "method_in_brief": "as §1"}, "ORYSAT (Rice, Tebonnet)": {"system": "ORYSAT (Rice, Tebonnet)", "test": "Postemergence herbicidal evaluation", "type": "in vivo, Oryza sativa, (L.) Tebonnet", "method_in_brief": "as §1"}, "ZEAMX (Corn, Field)": {"system": "ZEAMX (Corn, Field)", "test": "Postemergence herbicidal evaluation", "type": "in vivo, Zea mays", "method_in_brief": "as §1"}, "AMBEL (Ragweed, Common) [4]": {"system": "AMBEL (Ragweed, Common)", "test": "Preemergence herbicidal evaluation", "type": "in vivo, Ambrosia artemisifolia", "settings": "rated 4-5 weeks after treatment", "method_in_brief": "(§2)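 Seeds were mixed with potting soil and planted on about one inch of soil, then sprayed with test compound in aqueous acetone at about 0.0156 to 0.500 kg per hectare. Plants grew under standard greenhouse care and were visually rated 0-9 against untreated controls 4-5 weeks post-treatment.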"}, "CASOB (Sicklepod)": {"system": "CASOB (Sicklepod)", "test": "Preemergence herbicidal evaluation", "type": "in vivo, Cassia obtusifolia", "settings": "rated 4-5 weeks after treatment", "method_in_brief": "as §2"}, "[5]": {"system": "CHEAL (Lambsquarters, Common)", "test": "Preemergence herbicidal evaluation", "type": "in vivo, Chenopodium album", "settings": "rated 4-5 weeks after treatment", "method_in_brief": "as §2"}, "GALAP (Galium)": {"system": "GALAP (Galium)", "test": "Preemergence herbicidal evaluation", "type": "in vivo, Galium aparine", "settings": "rated 4-5 weeks after treatment", "method_in_brief": "as §2"}, "CYPSE (Flatsedge) [6]": {"system": "CYPSE (Flatsedge)", "test": "Preemergence weed control under flooded paddy conditions", "type": "in vivo, Cyperus serotinus", "settings": "rated 3-4 weeks after treatment", "method_in_brief": "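Flooded-pot preemergence screen with silt loam and seeds in the upper 0.5 cm. Dose about 0.0313 to 0.500 kg/ha, delivered into flood water; visual 0-9 score after 3 to 4 weeks.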"}, "CYPIR (Rice Flatsedge)": {"system": "CYPIR (Rice Flatsedge)", "test": "Postemergence weed control under flooded paddy conditions", "type": "in vivo, Cyperus iria", "settings": "postemergence weeds, 3-4 weeks after treatment", "method_in_brief": "(§3)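 Weeds 3 to 5 cm tall and rice seedlings at the 1.5 to 2.5 leaf stage were flooded, with water held 1.5 to 3 cm above the soil. Compounds in 50/50 v/v aqueous/acetone went into the flood water at about 0.0313 to 0.500 kg/ha. Visual 0-9 ratings versus control were made 3 to 4 weeks later.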"}, "CYPSE (Flatsedge) [7]": {"system": "CYPSE (Flatsedge)", "test": "Postemergence weed control under flooded paddy conditions", "type": "in vivo, Cyperus serotinus", "settings": "postemergence weeds, 3-4 weeks after treatment", "method_in_brief": "as §3"}},
  "data": [
    {"molecule": "Cn1c(C(F)(F)F)cc(=O)n(-c2cc(N=C3SCC(=O)N3CCC(=O)O)c(Cl)cc2F)c1=O", "note": "[Compound 30, 2-{{2-Chloro-5-[3,6-dihydro-3-methyl-2,6-dioxo-4-(trifluoromethyl)-1(2H)-pyrimidinyl]-4-fluorophenyl}imino}-4-oxo-3-thiazolidinepropionic acid]", "values": [
      {"measurement": "Postemergence herbicidal rating ABUTH", "setting": "ABUTH (Velvetleaf); Rate 0.0158 kg/ha", "result": 3.0},
      {"measurement": "Postemergence herbicidal rating ABUTH", "setting": "ABUTH (Velvetleaf); Rate 0.0315 kg/ha", "result": 9.0},
      {"measurement": "Postemergence herbicidal rating ABUTH", "setting": "ABUTH (Velvetleaf); Rate 0.0630 kg/ha", "result": 9.0},
      {"measurement": "Postemergence herbicidal rating AMBEL", "setting": "AMBEL (Ragweed, Common) [1]; Rate 0.0158 kg/ha", "result": 0.0},
      {"measurement": "Postemergence herbicidal rating AMBEL", "setting": "AMBEL (Ragweed, Common) [1]; Rate 0.0315 kg/ha", "result": 0.0},
      {"measurement": "Postemergence herbicidal rating AMBEL", "setting": "AMBEL (Ragweed, Common) [1]; Rate 0.0630 kg/ha", "result": 1.0},
      {"measurement": "Postemergence herbicidal rating CHEAL", "setting": "[2]; Rate 0.0158 kg/ha", "result": 0.0},
      {"measurement": "Postemergence herbicidal rating CHEAL", "setting": "[2]; Rate 0.0315 kg/ha", "result": 0.0},
      {"measurement": "Postemergence herbicidal rating CHEAL", "setting": "[2]; Rate 0.0630 kg/ha", "result": 3.0},
      {"measurement": "Postemergence herbicidal rating ECHCG", "setting": "ECHCG (Barnyardgrass); Rate 0.0158 kg/ha", "result": 0.0},
      {"measurement": "Postemergence herbicidal rating ECHCG", "setting": "ECHCG (Barnyardgrass); Rate 0.0315 kg/ha", "result": 0.0},
      {"measurement": "Postemergence herbicidal rating ECHCG", "setting": "ECHCG (Barnyardgrass); Rate 0.0630 kg/ha", "result": 0.0},
      {"measurement": "Postemergence herbicidal rating GLXMAW", "setting": "[3]; Rate 0.0158 kg/ha", "result": 6.5},
      {"measurement": "Postemergence herbicidal rating GLXMAW", "setting": "[3]; Rate 0.0315 kg/ha", "result": 6.5},
      {"measurement": "Postemergence herbicidal rating GLXMAW", "setting": "[3]; Rate 0.0630 kg/ha", "result": 6.5},
      {"measurement": "Postemergence herbicidal rating ORYSAT", "setting": "ORYSAT (Rice, Tebonnet); Rate 0.0158 kg/ha", "result": 2.0},
      {"measurement": "Postemergence herbicidal rating ORYSAT", "setting": "ORYSAT (Rice, Tebonnet); Rate 0.0315 kg/ha", "result": 2.5},
      {"measurement": "Postemergence herbicidal rating ORYSAT", "setting": "ORYSAT (Rice, Tebonnet); Rate 0.0630 kg/ha", "result": 3.5},
      {"measurement": "Postemergence herbicidal rating ZEAMX", "setting": "ZEAMX (Corn, Field); Rate 0.0158 kg/ha", "result": 3.0},
      {"measurement": "Postemergence herbicidal rating ZEAMX", "setting": "ZEAMX (Corn, Field); Rate 0.0315 kg/ha", "result": 4.5},
      {"measurement": "Postemergence herbicidal rating ZEAMX", "setting": "ZEAMX (Corn, Field); Rate 0.0630 kg/ha", "result": 6.0},
      {"measurement": "Preemergence herbicidal rating AMBEL", "setting": "AMBEL (Ragweed, Common) [4]; rate 0.0313 kg/ha", "result": 0.0},
      {"measurement": "Preemergence herbicidal rating AMBEL", "setting": "AMBEL (Ragweed, Common) [4]; rate 0.0625 kg/ha", "result": 1.0},
      {"measurement": "Preemergence herbicidal rating AMBEL", "setting": "AMBEL (Ragweed, Common) [4]; rate 0.1250 kg/ha", "result": 5.0},
      {"measurement": "Preemergence herbicidal rating AMBEL", "setting": "AMBEL (Ragweed, Common) [4]; rate 0.2500 kg/ha", "result": 6.0},
      {"measurement": "Preemergence herbicidal rating CASOB", "setting": "CASOB (Sicklepod); rate 0.0313 kg/ha", "result": 0.0},
      {"measurement": "Preemergence herbicidal rating CASOB", "setting": "CASOB (Sicklepod); rate 0.0625 kg/ha", "result": 0.0},
      {"measurement": "Preemergence herbicidal rating CASOB", "setting": "CASOB (Sicklepod); rate 0.1250 kg/ha", "result": 1.0},
      {"measurement": "Preemergence herbicidal rating CASOB", "setting": "CASOB (Sicklepod); rate 0.2500 kg/ha", "result": 1.0},
      {"measurement": "Preemergence herbicidal rating CHEAL", "setting": "[5]; rate 0.0313 kg/ha", "result": 0.0},
      {"measurement": "Preemergence herbicidal rating CHEAL", "setting": "[5]; rate 0.0625 kg/ha", "result": 0.0},
      {"measurement": "Preemergence herbicidal rating CHEAL", "setting": "[5]; rate 0.1250 kg/ha", "result": 9.0},
      {"measurement": "Preemergence herbicidal rating CHEAL", "setting": "[5]; rate 0.2500 kg/ha", "result": 9.0},
      {"measurement": "Preemergence herbicidal rating GALAP", "setting": "GALAP (Galium); rate 0.0313 kg/ha", "result": 0.0},
      {"measurement": "Preemergence herbicidal rating GALAP", "setting": "GALAP (Galium); rate 0.0625 kg/ha", "result": 0.0},
      {"measurement": "Preemergence herbicidal rating GALAP", "setting": "GALAP (Galium); rate 0.1250 kg/ha", "result": 1.0},
      {"measurement": "Preemergence herbicidal rating GALAP", "setting": "GALAP (Galium); rate 0.2500 kg/ha", "result": 9.0},
      {"measurement": "Herbicidal rating CYPSE", "setting": "CYPSE (Flatsedge) [6]; 0.1250 kg/ha", "result": 0.0},
      {"measurement": "Herbicidal rating CYPSE", "setting": "CYPSE (Flatsedge) [6]; 0.2500 kg/ha", "result": 0.0},
      {"measurement": "Herbicidal rating CYPIR", "setting": "CYPIR (Rice Flatsedge); rate 0.1250 kg/ha", "result": 2.0},
      {"measurement": "Herbicidal rating CYPIR", "setting": "CYPIR (Rice Flatsedge); rate 0.2500 kg/ha", "result": 4.5},
      {"measurement": "Herbicidal rating CYPSE", "setting": "CYPSE (Flatsedge) [7]; rate 0.1250 kg/ha", "result": 0.0},
      {"measurement": "Herbicidal rating CYPSE", "setting": "CYPSE (Flatsedge) [7]; rate 0.2500 kg/ha", "result": 0.0}
    ]}
  ]
}
